Data set [1] is described as follows: Particle size and morphology of drug particles from antisolvent sonocrystallization (optical microscope, SEM, dynamic light scattering). The class given is physicochemical. From the text: The application of ultrasound to the induction of nucleation of drug crystals is presented in the following examples. The apparatus shown in FIG. 1 was employed for all of the experiments, using a titanium-aluminum alloy flow-through ultrasonic horn (Sonics & Materials VCX750) having a resonance frequency of 20 kHz, a 1 cm^2 tip and an outlet diameter of 4 mm. Horn intensities were calibrated by calorimetry with water. A crystallization tube having an outer diameter (OD) of 13 mm was used in each experiment. Each has different solubility characteristics and consequently its own solvent/antisolvent system. Fine particles of several drug materials, including aspirin (acetylsalicylic acid), acetaminophen (also called paracetamol, the active ingredient in Tylenol), and folic acid (vitamin B9), were prepared by antisolvent sonocrystallization.
Particles were imaged using a Canon PC1015 digital camera attached to a Zeiss Axioskop optical/fluorescence microscope with polarization analyzer or with a Hitachi 4700 SEM. Particle size distributions were measured by dynamic light scattering when possible.

Data set [2] is described as follows: Solubility of the drug in solvent / antisolvent. The format is physicochemical. From the text:
The solute employed in the process may be any material for which a suitable solvent and antisolvent may be found. The suitability of a solvent/antisolvent system may be evaluated by comparing the solubility of the solute in the solvent with the solubility of the solute in the antisolvent. For example, the solute may have a first solubility in the solvent and a second solubility in the antisolvent, where a ratio of the first solubility to the second solubility is at least about 10:1, or at least about 100:1. A higher ratio may permit a higher particle yield to be achieved for a given concentration of solute in the solvent. Accordingly, the ratio may also be at least about 200:1 or at least about 400:1, but is typically no higher than about 800:1. As would be recognized by one of ordinary skill in the art, the solubility of solute in a given solvent may be represented in terms of milligrams of solute per milliliter of the solvent (mg/mL), and may be determined by HPLC or gravimetric analysis.

Regarding `CC(=O)Nc1ccc(O)cc1` [acetaminophen], the Resultant particle morphology entry in data set [1] (antisolvent sonocrystallization, 20 kHz, 15 W, solvent/antisolvent per experiment (Tables 1, 2)) was “platelike”. In addition, the “crystal length in the largest dimension” value in data set [1] (ethanol solution, hexanes as antisolvent, FIGS. 6A and 6B) is reported as “a few”.

For `Nc1nc2ncc(CNc3ccc(C(=O)N[C@@H](CCC(=O)O)C(=O)O)cc3)nc2c(=O)[nH]1` [Folic acid, folic acid], the crystal diameter entry in data set [1] (20% aqueous ammonium hydroxide solvent, acetone antisolvent, by SEM (FIGS. 8A-8B)) is recorded as “about 100 nm”. Moreover, the “particle morphology (optical microscope)” value in data set [1] (saturated sodium bicarbonate solution, H2SO4 antisolvent, FIGS. 7C-7D) was “large needles”. Moreover, the “particle size (optical microscope)” value in data set [1] (saturated sodium bicarbonate solution, HCl antisolvent, FIGS. 7A-7B) is recorded as “too small to resolve optically”. Moreover, in data set [2] (acetone), the solubility in acetone result is listed as “negligible”. For the same molecule, in data set [2] (base (as the folate ion)), the solubility in base entry is recorded as “dissolves readily”. Besides, the solubility in water entry is recorded as “very nearly insoluble” in data set [2] (neutral to moderately acidic water) and “quite soluble” in data set [2] (very low pH).

On to `CC(=O)Oc1ccccc1C(=O)O` [aspirin, acetylsalicylic acid], for which the “concentration of saturated ethanol solution” value in data set [2] (ethanol) is on record as “about 400 mg/mL”.

These data come from patent US9855538B2, “Ultrasonic method and apparatus for producing particles having a controlled size distribution” (The Board of Trustees of the University of Illinois, priority 2013, dated 2018).
